{"source": "patent US20060240117A1", "about": "“Snake powder extract for treatment of cancer” (priority 2002, published 2006)", "key": {"[1]": {"system": "tumor cell lines", "assay": "Tumor cell proliferation, oxygen biosensor", "type": "cell-based", "conditions": "DMSO, ethanol and PBS extracts; FIGS. 6, 7, 8", "description": "The following cell lines were utilized in the tests listed above: • Leukemia/Lymphoma: K562, Raji, Jurkatt, CEM; • Breast Carcinoma MCF-7, MDA-MB-231, MD-MB-468; • Prostate Carcinoma LNCaP, PC-3; • Colorectal Carcinoma: HT-29, HCT-116; • Pancreatic Carcinoma: PANC-1; • Gliobastaoma: GL10-1.\nThe DMSO and ETHANOL extract was prepared by the following process: • 4 g of powder was extracted with each • the extract was evaporated utilizing a speed vacuum centrifuge • when dried the extract was re-suspended in fresh solution at 1 g/ml. • the concentration of extract used ranges from 0.1 to 100 mg/ml\nThe PBS solution was prepared as follows: • dissolve 1 g/ml of powder within PBS solution • the concentration of extract used ranges from 0.1 to 100 mg/ml\nReferring to FIGS. 6, 7, and 8 the effect of snake extract on tumor cell proliferation utilizing the DMSO, ethanol, and PBS solutions, is respectively analyzed. The methodology used to analyze tumor cell proliferation was oxygen biosensor. With this methodology culture plates are coated with an oxygen sensitive fluorescent compound embedded in a gas-permeable and hydrophobic matrix permanently attached to the bottom of a multi-well plate. The amount of fluorescence correlates directly to the rate of oxygen consumption in the well, providing a signal that can be directly correlated to cell growth."}, "[2]": {"system": "Artemia salina nauplii", "assay": "Brine shrimp lethality assay", "type": "in vivo", "conditions": "24 h, 27-28° C., triplicate", "description": "The eggs of brine shrimp, Airtime salina (Leach), are used in monitoring bioactive compounds. The eggs are readily available in pet shops at low cost and remain viable for years in the dry state. The brine shrimp assay has advantages of being rapid (24 hrs), inexpensive, and simple. No aseptic techniques are required. It easily utilizes a large number of organisms for statistical validation and requires no special equipment and a relatively small amount of sample.\nThe assay was carried out with Artemia salina eggs. 50 mg of Artemia salina eggs in a beaker containing sea salt (6 g), yeast (0.9 mg) and distilled water (150 ml) were incubated at 27-28° C. for 24 hrs. The newly hatched nauplii were concentrated. From this volume, aliquots of 50 μl (approximately 18-20 nauplii) were pipette directly into a 24 well plates containing sea water (sw), −ve control (DMSO+sw), +ve control (emetine) or different concentrations of extracts (62.5-500 μg/ml). Assay was carried out in triplicate. The plates were sealed and incubated at 27-28° C. for 24 h. At the end of the 24-h incubation period, the content of each well was pipette into a watch glass individually. Survival was assessed by scoring the number of dead nauplii using a microscope. Once counts of dead nauplii had been taken, 0.5 ml of methanol was added to kill all remaining nauplii. The contents of each well were then recorded and result tabulated as (X/Y; where X number dead and Y=number of dead and alive)."}, "[3]": {"system": "MDA-MB-435 tumor masses", "conditions": "cited from earlier work"}, "[4]": {"system": "breast cancer cells", "conditions": "cited from earlier work"}, "[5]": {"system": "angiogenesis", "conditions": "elicited by basic fibroblast growth factor; cited from earlier work"}, "[6]": {"system": "B16F10 solid tumor", "conditions": "C57BU6 mice; cited from earlier work"}}, "data": [{"compound": "CC[C@@]1(O)C(=O)OCc2c1cc1n(c2=O)Cc2cc3ccccc3nc2-1", "note": "[Camptothecin]", "values": [{"measurement": "inhibition of tumor cell proliferation", "setting": "[1]", "result": "more effective at inhibiting cell proliferation of different cell lines than the snake powder extract"}]}, {"compound": "CC[C@H]1CN2CCc3cc(OC)c(OC)cc3[C@@H]2C[C@@H]1C[C@H]1NCCc2cc(OC)c(OC)cc21", "note": "[Emetine]", "values": [{"measurement": "mortality at 62.5 µg/mL", "setting": "[2]; 62.5 μg/ml", "result": 58.2, "unit": "%"}, {"measurement": "mortality at 125 µg/mL", "setting": "[2]; 125 μg/ml", "result": 100, "unit": "%"}, {"measurement": "mortality at 250 µg/mL", "setting": "[2]; 250 μg/ml", "result": 100, "unit": "%"}, {"measurement": "mortality at 500 µg/mL", "setting": "[2]; 500 μg/ml", "result": 100, "unit": "%"}]}, {"compound": "Contortrostatin", "values": [{"measurement": "angiogenesis induced by breast cancer", "setting": "[3]; immunohistochemical quantitation of vascular endothelial cells in tumor tissue", "result": "inhibiting angiogenesis induced by breast cancer"}, {"measurement": "inhibition of tumor growth", "setting": "[3]; injected daily at 5 microgram per mouse to tumor masses", "result": 74, "unit": "%"}, {"measurement": "cytotoxicity to cancer cells", "setting": "[4]", "result": "not cytotoxic to cancer cells"}, {"measurement": "proliferation of the breast cancer cells", "setting": "[4]; in vitro", "result": "does not inhibit proliferation"}]}, {"compound": "Rhodostomin", "values": [{"measurement": "angiogenesis", "setting": "[5]", "result": "inhibit angiogenesis"}, {"measurement": "survival", "setting": "[6]", "result": "prolonged survival"}, {"measurement": "tumor growth", "setting": "[6]", "result": "suppressed tumor growth"}]}]}
